Reference: patent publication US10160724B2, “Tetrahydropyridine derivatives and their use as antibacterial agents” (Dong-A St Co., Ltd., priority 2016, dated 2018)
Converted amounts (≈) assume the structure as drawn.

Assays:
Assay in all cases: In vitro antibiotic activity, agar dilution method (Mueller-Hinton agar, NCCLS)
Format in all cases: cell-based
[1] = system: K. pneumoniae ATCC 29665; details: Klebsiella pneumoniae, ATCC29665; agar dilution, Mueller-Hinton agar; read-out: MIC for K. pneumoniae ATCC 29665
Description: (§1) To measure the antibiotic activity of the compounds prepared by Examples, antibiotic activity test in vitro was performed by agar dilution method using Mueller-Hinton agar according to the NCCLS (National Committee for Clinical Laboratory Standards. 2000. Methods for dilution antimicrobial susceptibility tests for bacteria that grow aerobiocally. Approved standard, NCCLS document M7-M5, 5th ed, vol 20, no 2. National Committee for Clinical Laboratory Standards, Wayne, Pa.). The test strain was Escherichia coli (ATCC 25922), Klebsiella pneumonia (ATCC 29665) and Pseudomonas aeriginosa (PAO1).

[2] = system: P. aeruginosa PAO1; details: Pseudomonas aeruginosa, PAO1; agar dilution, Mueller-Hinton agar; read-out: MIC for P. aeruginosa PAO1
Description: as §1

[3] = system: E. coli ATCC 25922; details: Escherichia coli, ATCC25922; agar dilution, Mueller-Hinton agar; read-out: MIC for E. coli ATCC 25922
Description: as §1

Row | SMILES | MIC [1] [µg/mL] | MIC [2] [µg/mL] | MIC [3] [µg/mL]
1 | CC(CCN1CC=C(c2ccc(C#CCCCN)cc2)CC1)(C(=O)NO)S(C)(=O)=O (stereo not drawn) [Example 21, 4-(4-(4-(5-aminopent-1-yn-1-yl)phenyl)-3,6-dihydropyridin-1(2H)-yl)-N-hydroxy-2-methyl-2-(methylsulfonyl)butanamide] | > 16 | > 16 | 8 to 16 (≈ 18.5 to 36.9 µM)
2 | CC(CCN1CC=C(c2ccc(C#CCO)cc2)CC1)(C(=O)NO)S(C)(=O)=O (stereo not drawn) [Example 22, N-hydroxy-4-(4-(4-(3-hydroxyprop-1-yn-1-yl)phenyl)-3,6-dihydropyridin-1(2H)-yl)-2-methyl-2-(methylsulfonyl)butanamide] | > 16 | 1 to 8 (≈ 2.46 to 19.7 µM) | 1 to 8 (≈ 2.46 to 19.7 µM)
3 | COCC#Cc1ccc(C2=CCN(CCC(C)(C(=O)NO)S(C)(=O)=O)CC2)cc1 (stereo not drawn) [Example 23, N-hydroxy-4-(4-(4-(3-methoxyprop-1-yn-1-yl)phenyl)-3,6-dihydropyridin-1(2H)-yl)-2-methyl-2-(methylsulfonyl)butanamide] | 1 to 8 (≈ 2.38 to 19 µM) | 1 to 8 (≈ 2.38 to 19 µM) | < 1
4 | CC(CCN1CC=C(c2ccc(C#CCOCCCO)cc2)CC1)(C(=O)NO)S(C)(=O)=O (stereo not drawn) [Example 24, N-hydroxy-4-(4-(4-(3-(3-hydroxypropoxy)prop-1-yn-1-yl)phenyl)-3,6-dihydropyridin-1(2H)-yl)-2-methyl-2-(methylsulfonyl)butanamide] | 1 to 8 (≈ 2.15 to 17.2 µM) | 1 to 8 (≈ 2.15 to 17.2 µM) | 1 to 8 (≈ 2.15 to 17.2 µM)
5 | CC(CCN1CC=C(c2ccc(C#CCN3CCOCC3)cc2)CC1)(C(=O)NO)S(C)(=O)=O (stereo not drawn) [Example 25, N-hydroxy-2-methyl-2-(methylsulfonyl)-4-(4-(4-(3-morpholinoprop-1-yn-1-yl)phenyl)-3,6-dihydropyridin-1(2H)-yl)butanamide] | 1 to 8 (≈ 2.1 to 16.8 µM) | 1 to 8 (≈ 2.1 to 16.8 µM) | 1 to 8 (≈ 2.1 to 16.8 µM)
6 | CC(CCN1CC=C(c2ccc(C#CCOC(N)=O)cc2)CC1)(C(=O)NO)S(C)(=O)=O (stereo not drawn) [Example 26, 3-(4-(1-(4-(hydroxyamino)-3-methyl-3-(methylsulfonyl)-4-oxobutyl)-1,2,3,6-tetrahydropyridin-4-yl)phenyl)prop-2-yn-1-yl carbamate] | 8 to 16 (≈ 17.8 to 35.6 µM) | 1 to 8 (≈ 2.22 to 17.8 µM) | 1 to 8 (≈ 2.22 to 17.8 µM)
7 | CC(CCN1CC=C(c2ccc(C#CCCCOC(N)=O)cc2)CC1)(C(=O)NO)S(C)(=O)=O (stereo not drawn) [Example 27, 5-(4-(1-(4-(hydroxyamino)-3-methyl-3-(methylsulfonyl)-4-oxobutyl)-1,2,3,6-tetrahydropyridin-4-yl)phenyl)pent-4-yn-1-yl carbamate] | 1 to 8 (≈ 2.09 to 16.8 µM) | 1 to 8 (≈ 2.09 to 16.8 µM) | < 1
8 | COCCCC#Cc1ccc(C2=CCN(CCC(C)(C(=O)NO)S(C)(=O)=O)CC2)cc1 (stereo not drawn) [Example 28, N-hydroxy-4-(4-(4-(5-methoxypent-1-yn-1-yl)phenyl)-3,6-dihydropyridin-1(2H)-yl)-2-methyl-2-(methylsulfonyl)butanamide] | < 1 | 1 to 8 (≈ 2.23 to 17.8 µM) | < 1
9 | CC(CCN1CC=C(c2ccc(C#CCCCCO)cc2)CC1)(C(=O)NO)S(C)(=O)=O (stereo not drawn) [Example 29, N-hydroxy-4-(4-(4-(6-hydroxyhex-1-yn-1-yl)phenyl)-3,6-dihydropyridin-1(2H)-yl)-2-methyl-2-(methylsulfonyl)butanamide] | 1 to 8 (≈ 2.23 to 17.8 µM) | 1 to 8 (≈ 2.23 to 17.8 µM) | < 1
10 | CC(CCN1CC=C(c2ccc(C#CCCCCN3CCOCC3)cc2)CC1)(C(=O)NO)S(C)(=O)=O (stereo not drawn) [Example 30, N-hydroxy-2-methyl-2-(methylsulfonyl)-4-(4-(4-(6-morpholinohex-1-yn-1-yl)phenyl)-3,6-dihydropyridin-1(2H)-yl)butanamide] | 1 to 8 (≈ 1.93 to 15.5 µM) | 1 to 8 (≈ 1.93 to 15.5 µM) | < 1
11 | CN(C)CC#Cc1ccc(C2=CCN(CCC(C)(C(=O)NO)S(C)(=O)=O)CC2)cc1F (stereo not drawn) [Example 31, 4-(4-(4-(3-(dimethylamino)prop-1-yn-1-yl)-3-fluorophenyl)-3,6-dihydropyridin-1(2H)-yl)-N-hydroxy-2-methyl-2-(methylsulfonyl)butanamide] | 1 to 8 (≈ 2.21 to 17.7 µM) | 1 to 8 (≈ 2.21 to 17.7 µM) | < 1
12 | CN(C)CC#Cc1c(F)cc(C2=CCN(CCC(C)(C(=O)NO)S(C)(=O)=O)CC2)cc1F (stereo not drawn) [Example 32, 4-(4-(4-(3-(dimethylamino)prop-1-yn-1-yl)-3,5-difluorophenyl)-3,6-dihydropyridin-1(2H)-yl)-N-hydroxy-2-methyl-2-(methylsulfonyl)butanamide] | 1 to 8 (≈ 2.13 to 17 µM) | 1 to 8 (≈ 2.13 to 17 µM) | < 1
13 | CN(C)CC#Cc1ccc(C2=CCN(CCC(C)(C(=O)NO)S(C)(=O)=O)CC2)c(F)c1 (stereo not drawn) [Example 33, 4-(4-(4-(3-(dimethylamino)prop-1-yn-1-yl)-2-fluorophenyl)-3,6-dihydropyridin-1(2H)-yl)-N-hydroxy-2-methyl-2-(methylsulfonyl)butanamide] | 8 to 16 (≈ 17.7 to 35.4 µM) | 1 to 8 (≈ 2.21 to 17.7 µM) | 1 to 8 (≈ 2.21 to 17.7 µM)
14 | CC(CCN1CC=C(c2ccc(C#Cc3cccs3)cc2)CC1)(C(=O)NO)S(C)(=O)=O (stereo not drawn) [Example 34, N-hydroxy-2-methyl-2-(methylsulfonyl)-4-(4-(4-(thiophen-2-ylethynyl)phenyl)-3,6-dihydropyridin-1(2H)-yl)butanamide] | 1 to 8 (≈ 2.18 to 17.4 µM) | 1 to 8 (≈ 2.18 to 17.4 µM) | < 1
15 | CC(CCN1CC=C(c2ccc(C#Cc3ccc([N+](=O)[O-])cc3)cc2)CC1)(C(=O)NO)S(C)(=O)=O (stereo not drawn) [Example 35, N-hydroxy-2-methyl-2-(methylsulfonyl)-4-(4-(4-((4-nitrophenyl)ethynyl)phenyl)-3,6-dihydropyridin-1(2H)-yl)butanamide] | > 16 | > 16 | > 16
16 | CC(CCN1CC=C(c2ccc(C#Cc3cccnc3)cc2)CC1)(C(=O)NO)S(C)(=O)=O (stereo not drawn) [Example 36, N-hydroxy-2-methyl-2-(methylsulfonyl)-4-(4-(4-(pyridin-3-ylethynyl)phenyl)-3,6-dihydropyridin-1(2H)-yl)butanamide] | 1 to 8 (≈ 2.2 to 17.6 µM) | 1 to 8 (≈ 2.2 to 17.6 µM) | < 1
17 | CC(CCN1CC=C(c2ccc(C#Cc3ccc(O)cc3)cc2)CC1)(C(=O)NO)S(C)(=O)=O (stereo not drawn) [Example 37, N-hydroxy-4-(4-(4-((4-hydroxyphenyl)ethynyl)phenyl)-3,6-dihydropyridin-1(2H)-yl)-2-methyl-2-(methylsulfonyl)butanamide] | > 16 | > 16 | < 1
18 | Cn1cnc(C#Cc2ccc(C3=CCN(CCC(C)(C(=O)NO)S(C)(=O)=O)CC3)cc2)c1 (stereo not drawn) [Example 38, N-hydroxy-2-methyl-4-(4-(4-((1-methyl-1H-imidazol-4-yl)ethynyl)phenyl)-3,6-dihydropyridin-1(2H)-yl)-2-(methylsulfonyl)butanamide] | 1 to 8 (≈ 2.19 to 17.5 µM) | 1 to 8 (≈ 2.19 to 17.5 µM) | < 1
19 | CN1CC(C#Cc2ccc(C3=CCN(CCC(C)(C(=O)NO)S(C)(=O)=O)CC3)cc2)C1 (stereo not drawn) [Example 39, N-hydroxy-2-methyl-4-(4-(4-((1-methylazetidin-3-yl)ethynyl)phenyl)-3,6-dihydropyridin-1(2H)-yl)-2-(methylsulfonyl)butanamide] | 8 to 16 (≈ 18 to 35.9 µM) | 8 to 16 (≈ 18 to 35.9 µM) | 8 to 16 (≈ 18 to 35.9 µM)
20 | CC(=O)N1CC(C#Cc2ccc(C3=CCN(CCC(C)(C(=O)NO)S(C)(=O)=O)CC3)cc2)C1 (stereo not drawn) [Example 40, 4-(4-(4-((1-acetylazetidin-3-yl)ethynyl)phenyl)-3,6-dihydropyridin-1(2H)-yl)-N-hydroxy-2-methyl-2-(methylsulfonyl)butanamide] | 1 to 8 (≈ 2.11 to 16.9 µM) | 1 to 8 (≈ 2.11 to 16.9 µM) | 1 to 8 (≈ 2.11 to 16.9 µM)
